Laboratory results published in patent US9023789B2, “Amylin analogs and pharmaceutical compositions thereof” (Novo Nordisk A/S, priority 2012, dated 2015).
≈ marks a conversion by molar mass, not a printed value. Where two headings read alike, the source gives them in different places. Numbered stars: 1 amine (or outer) side, 2 acyl side, 3 side chain; on linkers, the order of the positions; unused ones are H or OH. Bridge positions count the residues as written; N and C are the ends. Side chains are listed from the residue outwards. Peptide text beside a SMILES is read from it. * marks the point of attachment. C20 diacid = O=C(O)CCCCCCCCCCCCCCCCCCC(=O)*; γGlu = O=C(O)[C@H](CCC(=O)[*:2])N[*:1]

What was measured:
[1] = target: T1, human amylin 3(a) receptor (human calcitonin receptor + RAMP-3) in BHK570 cells (Homo sapiens, UniProt O60896+P30988); test: ASSAY (II)a functional assay, human amylin receptor (CRE luciferase); type: cell-based; conditions: for EC50: human amylin receptor functional potency, assay (II), read-out: hAmylin-R funct. EC50
T1 construct: expressed in transfected cells
How it was run: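 Ligand exposure 3 h at 37 °C, 5% CO2 in DMEM with 10% FBS, 10 mM Hepes pH 7.4. cAMP-driven luciferase read by luminescence after 30 min LucLite at room temperature.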

[2] = target: T2, rat calcitonin receptor (Rattus norvegicus, UniProt P32214); test: ASSAY (VIII) binding to the rat calcitonin receptor; conditions: Table 7, read-out: rCTR bind IC50
T2 construct: expressed in transfected cells; host or cells: BHK tk'ts 13 (transient, FuGENE 6), membranes
T2 sequence (P32214 25-479 isoform P32214-2 limits assumed): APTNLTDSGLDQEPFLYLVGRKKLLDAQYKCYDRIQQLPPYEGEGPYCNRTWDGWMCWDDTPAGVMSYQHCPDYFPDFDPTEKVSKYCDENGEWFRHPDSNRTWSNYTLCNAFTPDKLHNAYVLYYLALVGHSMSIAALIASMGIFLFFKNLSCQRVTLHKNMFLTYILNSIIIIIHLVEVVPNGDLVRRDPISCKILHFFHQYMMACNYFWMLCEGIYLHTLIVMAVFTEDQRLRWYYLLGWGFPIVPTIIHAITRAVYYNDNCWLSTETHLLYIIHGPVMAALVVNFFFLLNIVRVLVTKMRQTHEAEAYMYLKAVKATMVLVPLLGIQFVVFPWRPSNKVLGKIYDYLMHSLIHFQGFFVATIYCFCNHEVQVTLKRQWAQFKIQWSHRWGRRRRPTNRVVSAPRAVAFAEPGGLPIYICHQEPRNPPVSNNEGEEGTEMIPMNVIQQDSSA
Procedure: Assay (VIII)—Determination of Binding to the Rat Calcitonin Receptor
(§1) The BHK tk′ts 13 cells were transiently transfected with rat calcitonin receptor using FuGENE® 6 (Roche), according to the manufacturer's recommendations. Cells were grown in DMEM with 10% FBS and 1% Pen/Strep. Approximately 48 hours after transfection, the cells were harvested and membranes were prepared.

[3] = target: T3, human amylin receptor (membranes from Amylin 3(a)/CRE-luc cells) (Homo sapiens, UniProt O60896+P30988); test: ASSAY (V) binding to the human amylin receptor (SPA, 125I-rat amylin);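 further: competition binding of cell membranes (35 ng/µL) mixed with SPA beads in 384-well plates at 40 µL total volume, read by scintillation counting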
T3 construct: expressed in transfected cells
T3 sequence (P30988 25-474): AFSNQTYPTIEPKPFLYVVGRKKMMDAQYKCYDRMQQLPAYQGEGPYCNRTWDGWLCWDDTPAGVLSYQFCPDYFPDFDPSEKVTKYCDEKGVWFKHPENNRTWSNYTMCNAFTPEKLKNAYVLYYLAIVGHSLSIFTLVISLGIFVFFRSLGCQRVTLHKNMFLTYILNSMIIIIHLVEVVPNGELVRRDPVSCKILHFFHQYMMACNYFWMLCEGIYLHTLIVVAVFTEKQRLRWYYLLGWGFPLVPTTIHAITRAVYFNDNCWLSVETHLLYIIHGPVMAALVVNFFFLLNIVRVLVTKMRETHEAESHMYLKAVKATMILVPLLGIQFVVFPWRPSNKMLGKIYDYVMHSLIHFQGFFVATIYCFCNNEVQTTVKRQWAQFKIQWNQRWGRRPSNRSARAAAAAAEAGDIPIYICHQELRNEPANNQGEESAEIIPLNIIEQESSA
T3 sequence (O60896 24-148 partner): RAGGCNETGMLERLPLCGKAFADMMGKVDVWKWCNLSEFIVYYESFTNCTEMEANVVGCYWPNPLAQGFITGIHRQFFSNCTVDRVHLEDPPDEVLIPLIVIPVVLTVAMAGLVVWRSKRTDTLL

[4] = target: T4, rat amylin receptor (rat calcitonin receptor + rat RAMP 3) (Rattus norvegicus, UniProt P32214+Q9JJ73); test: ASSAY (VI) binding to the rat amylin receptor; conditions: for IC50: binding to rat amylin receptor, read-out: rAmylin-R bind IC50
T4 construct: expressed in transfected cells; host or cells: BHK tk'ts 13 (transient, FuGENE 6), membranes
T4 sequence (P32214 25-479 isoform P32214-2 limits assumed): T2 sequence (P32214 25-479 isoform P32214-2 limits assumed)
T4 sequence (Q9JJ73 23-147 partner): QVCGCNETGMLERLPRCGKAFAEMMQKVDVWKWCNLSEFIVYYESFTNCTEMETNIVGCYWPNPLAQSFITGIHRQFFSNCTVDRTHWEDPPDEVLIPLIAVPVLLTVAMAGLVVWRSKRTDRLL
Procedure: as §1, with “Assay (VI)—Determination of the Binding to the Rat Amylin Receptor […] The” for “The”, “Cells were grown in DMEM with 10% FBS and 1% Pen/Strep.” left out

[5] = target: T5, human calcitonin (a) receptor in BHK570 cells (Homo sapiens, UniProt P30988); test: ASSAY (II)a functional assay, human calcitonin receptor (CRE luciferase); type: cell-based; conditions: read-out: hCTR funct. EC50
T5 construct: expressed in transfected cells
T5 sequence (P30988 25-474): T3 sequence (P30988 25-474)
Text: 1. Luciferase Assay Outline
Activation of calcitonin and amylin (coexpression of calcitonin receptor and receptor activity modifying proteins (RAMP)) receptors lead to increased intracellular concentrations of cAMP. Consequently, transcription is activated by promoters containing multiple copies of the cAMP response element (CRE). It is thus possible to measure amylin activity by the use of a CRE luciferase reporter gene introduced into BHK cells also expressing calcitonin or amylin receptors.
2. Construction of Calcitonin (a)- and Amylin 3(a)-Receptor/CRE-Luc Cell Line.
The cell line was further transfected with RAMP-3, using standard methods. This turns the calcitonin receptor into an amylin 3(a) receptor. Methotrexate, Neomycin, and Hygromycin are selection markers for luciferase, the calcitonin receptor, and RAMP-3, respectively.
To perform activity assays, BHK calcitonin (a) receptor- or amylin 3(a)-receptor/CRE-luc cells were seeded in white 96 well culture plates at a density of about 20.000 cells/well. […] After incubation overnight at 37° C. and 5% CO2, the growth medium was replaced by 50 μl/well assay medium (DMEM (without phenol red), Glutamax™, 10% FBS, and 10 mM Hepes, pH 7.4). Further, 50 μl/well of standard or sample in assay buffer were added. After 3 hours incubation at 37° C. and 5% CO2, the assay medium with standard or sample were removed and replaced by 100 μl/well PBS. Further, 100 μl/well LucLite™ was added. The plates were sealed and incubated at room temperature for 30 minutes. Finally, luminescence was measured on a TopCounter (Packard) in SPC (single photon counting) mode.

[6] = ASSAY (IV) determination of solubility; type: physicochemical
Procedure: Assay (IV)—Determination of Solubility
The polypeptide was dissolved in water at −500 nmol/ml and mixed 1:1 with a series of buffers (100 mM glycylglycine pH 3.0, 100 mM glycylglycine pH 4.0, 100 mM glycylglycine pH 5.0, 100 mM bistrispropane pH 6.0, 100 mM bistrispropane pH 6.5, 100 mM bistrispropane pH 7.0, 100 mM bistrispropane pH 7.5, 100 mM bistrispropane pH 8.0). After 18 hours at room temperature the samples were centrifuged and the polypeptide concentration determined by UPLC.

[7] = target: T6, human calcitonin receptor (Homo sapiens, UniProt P30988); test: ASSAY (VII) binding to the human calcitonin receptor (SPA, 125I-Calcitonin); conditions: read-out: hCTR bind IC50;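 further: cell membranes (35 ng/µL) combined with SPA beads in 40 µL of pH 7.4 Hepes buffer, 384-well format, signal counted on a TopCounter instrument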
T6 construct: expressed in transfected cells
T6 sequence (P30988 25-474): T3 sequence (P30988 25-474)

[8] = human functional selectivity: hCTR funct. EC50 / hAmylin-R funct. EC50
[9] = Table 5, selectivity, hCTR bind IC50 / hAmylin-R bind IC50
[10] = Table 7, human binding selectivity, included for comparison
[11] = Table 7, rat binding selectivity, rCTR IC50 / rAmylin-R IC50

CC(C)C[C@H](NC(=O)[C@H](CCCNC(=N)N)NC(=O)[C@H](CCC(N)=O)NC(=O)[C@@H](NC(=O)[C@H](C)NC(=O)[C@@H]1CSSC[C@H](NC(=O)[C@@H](N)CCCCNC(=O)CC[C@H](NC(=O)CC[C@H](NC(=O)CCCCCCCCCCCCCCCCCCC(=O)O)C(=O)O)C(=O)O)C(=O)N[C@@H](CC(N)=O)C(=O)N[C@@H]([C@@H](C)O)C(=O)N[C@@H](C)C(=O)N[C@@H]([C@@H](C)O)C(=O)N1)[C@@H](C)O)C(=O)N[C@@H](C)C(=O)N[C@@H](CC(=O)O)C(=O)N[C@@H](Cc1ccccc1)C(=O)N[C@@H](CC(C)C)C(=O)N[C@@H](CCCNC(=N)N)C(=O)N[C@@H](Cc1c[nH]cn1)C(=O)N[C@@H](CO)C(=O)N[C@@H](CO)C(=O)N[C@@H](CC(N)=O)C(=O)N1CCC[C@H]1C(=O)N[C@@H](Cc1ccccc1)C(=O)NCC(=O)N[C@@H](C)C(=O)N1CCC[C@H]1C(=O)N[C@@H](CC(C)C)C(=O)N[C@@H](CO)C(=O)N[C@@H](CO)C(=O)N[C@H](C(=O)N[C@@H](CC(N)=O)C(=O)N[C@H](C(=O)NCC(=O)N[C@@H](CO)C(=O)N[C@@H](CC(=O)O)C(=O)N[C@H](C(=O)N[C@@H](Cc1ccc(O)cc1)C(N)=O)[C@@H](C)O)C(C)C)[C@@H](C)O [Example 3] (H-K([γGlu-γGlu-C20 diacid])CNTATCATQRLADFLRHSSNPFGAPLSSTNVGSDTY-NH2; disulfide 2-7; N-terminus assumed)
EC50 [1]: 0.205 nM | Ratio hCT/hAmylin funct. [1, 8]: 6.7 | IC50 [2]: 16.7 nM | Ratio hCT/hAmylin binding [3, 9]: 17.3 | Ratio hCT/hAmylin binding ([3]; Table 5a, selectivity, hCTR bind IC50 / hAmylin-R bind IC50): 17.3 | Ratio hCT/hAmylin binding ([3]; Table 5b, selectivity, hCTR bind IC50 / hAmylin-R bind IC50): 17.3 | Ratio hCT/hAmylin binding [3, 10]: 17.3 | Ratio hCT/hAmylin binding ([3]; Table 7a (preferred compounds), human binding selectivity, included for comparison): 17.3 | Ratio hCT/hAmylin binding ([3]; ratio of human calcitonin receptor binding IC50 to human amylin receptor binding IC50): 17.3 | IC50 ([4]; Table 7): 1 nM | Ratio rCT/rAmylin binding [4, 11]: 16.7 | Ratio rCT/rAmylin binding ([4]; Table 7a (preferred compounds), rat binding selectivity, rCTR IC50 / rAmylin-R IC50): 16.7 | Ratio rCT/rAmylin binding ([4]; ratio of rCTR bind IC50 to rAmylin-R bind IC50): 16.7 | EC50 [5]: 1.38 nM | solubility at 18 h ([6]; bistrispropane buffer, pH 6.5, read-out: Solubility pH 6.5 Concentration): ≥ 200 µM | solubility at 18 h ([6]; bistrispropane buffer, pH 7.5, read-out: Solubility pH 7.5 Concentration): ≥ 200 µM | solubility at 18 h ([6]; bistrispropane buffer, pH 6.0, read-out: Solubility pH 6.0 Concentration): 189 µM (≈ 853 µg/mL) | solubility at 18 h ([6]; bistrispropane buffer, pH 7.0, read-out: Solubility pH 7.0 Concentration): 195 µM (≈ 880 µg/mL) | solubility at 18 h ([6]; bistrispropane buffer, pH 8.0, read-out: Solubility pH 8.0 Concentration): ≥ 200 µM | solubility at 18 h ([6]; glycylglycine buffer, pH 3.0, read-out: Solubility pH 3.0 Concentration): ≥ 200 µM | solubility at 18 h ([6]; glycylglycine buffer, pH 4.0, read-out: Solubility pH 4.0 Concentration): 96 µM (≈ 433 µg/mL) | solubility at 18 h ([6]; glycylglycine buffer, pH 5.0, read-out: Solubility pH 5.0 Concentration): 141 µM (≈ 636 µg/mL)

CC[C@H](C)[C@H](NC(=O)[C@@H]1CCCN1C(=O)CNC(=O)[C@H](Cc1ccccc1)NC(=O)[C@H](CC(N)=O)NC(=O)[C@@H]1CCCN1C(=O)[C@H](CO)NC(=O)[C@H](CO)NC(=O)[C@H](Cc1c[nH]cn1)NC(=O)[C@H](CCCNC(=N)N)NC(=O)[C@H](CC(C)C)NC(=O)[C@H](Cc1ccccc1)NC(=O)[C@H](CCC(=O)O)NC(=O)[C@H](C)NC(=O)[C@H](CC(C)C)NC(=O)[C@H](CCCNC(=N)N)NC(=O)[C@H](CCC(N)=O)NC(=O)[C@@H](NC(=O)[C@H](C)NC(=O)[C@@H]1CSSC[C@H](NC(=O)[C@H](CCCCN)NC(=O)CC[C@H](NC(=O)CCCCCCCCCCCCCCCCCCC(=O)O)C(=O)O)C(=O)N[C@@H](CC(N)=O)C(=O)N[C@@H]([C@@H](C)O)C(=O)N[C@@H](C)C(=O)N[C@@H]([C@@H](C)O)C(=O)N1)[C@@H](C)O)C(=O)N[C@@H](CC(C)C)C(=O)N1CCC[C@H]1C(=O)N1CCC[C@H]1C(=O)N[C@H](C(=O)N[C@@H](CC(N)=O)C(=O)N[C@H](C(=O)NCC(=O)N[C@@H](CO)C(=O)N[C@@H](CC(N)=O)C(=O)N[C@H](C(=O)N1CCC[C@H]1C(N)=O)[C@@H](C)O)C(C)C)[C@@H](C)O [Example 4] ({C20 diacid-γGlu}-KCNTATCATQRLAEFLRHSSPNFGPILPPTNVGSNTP-NH2; disulfide 2-7)
Ratio hCT/hAmylin funct. ([1]; hCTR funct. EC50 / hAmylin-R funct. EC50): 1.2 | Ratio hCT/hAmylin funct. ([1]; hCTR funct. EC50 over hAmylin-R funct. EC50): 1.2 | EC50 [1]: 0.06 nM | Ratio hCT/hAmylin funct. [1, 8]: 1.2 | IC50 ([3]; Table 4, read-out: hAmylin-R bind IC50): 0.321 nM | Ratio hCT/hAmylin binding [3, 9]: 2.1 | Ratio hCT/hAmylin binding [3, 10]: 2.1 | IC50 [7]: 0.688 nM | IC50 ([4]; Table 7): 1.3 nM | Ratio rCT/rAmylin binding [4, 11]: 3.1 | EC50 [5]: 0.07 nM
